This note sets out measurements from PubChem BioAssay (NCI).

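Exposure lasted 48 hours, with cells grown in 96-well plates and compounds tested at five concentrations. GI50: concentration for 50% inhibition of growth. TGI marks complete inhibition of growth.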

Holding throughout (experiment): growth of human tumour cells (NCI), 48 h
The test system of assay [1] is SF-539 CNS.
The test system of assay [2] is MDA-MB-435.
Assay [3] relates to UACC-257 melanoma.
Assay [4] relates to HOP-62 NSCLC.
Assay [5] concerns OVCAR-4 ovarian.
The subject of assay [6] is 786-0 renal.
The test system of assay [7] is MDA-N.
The subject of assay [8] is A549 NSCLC.
Assay [9] concerns COLO 205 colon.
Assay [10] deals with SF-268 CNS.
The subject of assay [11] is HOP-92 NSCLC.

For the compound `N#Cc1c(C#N)c(-c2ccccc2)n(-c2ccccc2)c1N`, the TGI in [1], in assay [2], in [3], in [4], in [5] and in assay [6] was > 100 µM in each case. Further, the TGI in assay [7], in assay [8], in [9] and in assay [10] was > 100 µM each time.
For `CC1=CC(=O)C(C(O)(C(F)(F)F)C(F)(F)F)C(C)(C)C1` (centres undefined), the TGI in assay [1], in assay [2], in assay [3], in [4], in [5] and in assay [6] was > 10 µM each time. For the same compound, the TGI in [7], in assay [8], in assay [9] and in assay [10] was > 10 µM throughout.
As for `O=C(O)CC(NC(=O)/C(=C/c1ccccc1O)NC(=O)c1ccccc1)C(=O)O` (centres undefined), the TGI in assay [1], in assay [2], in assay [3], in [4], in assay [5] and in [6] was > 100 µM throughout. Also, the TGI in assay [7], in [8] and in [9] was > 100 µM throughout.
With `CC(C)(C)OC(=O)n1c(-c2ccccc2F)cc(=O)c2cc3c(cc21)OCO3`, the TGI was > 72.9 µM in [1]; > 100 µM in [2]; > 100 µM in assay [4]; > 100 µM in assay [5]; > 44.3 µM in [6]; > 100 µM in assay [11]. The figures for the TGI in [8] and in assay [10] were > 39.7 µM and > 100 µM, respectively.
In the case of `c1csc(-c2c3ccc(=[N+]4CCCCC4)cc-3oc3cc(N4CCCCC4)ccc23)c1`, the GI50 in [1] is 44.6 nM; in assay [3], 0.0982 µM; in assay [4] it was 0.0648 µM; in assay [11], 127 nM. In addition, the TGI in assay [1] stood at 0.195 µM; in assay [3] it was 0.321 µM; in assay [4], 0.199 µM; in [11], 0.309 µM.
As to `N#CC(=N)c1ncn(-c2ccccc2N)c1N`, the TGI in assay [1], in [2], in assay [3], in [4], in assay [5] and in assay [6] was > 100 µM each time. Besides, the TGI in assay [7], in [8], in [9] and in assay [10] was > 100 µM throughout.
Regarding `CN(C)P(=O)(Oc1occc1C(O)Cc1ccccc1)N(C)C` (centres undefined), the TGI in assay [1], in assay [2], in assay [3], in assay [4], in assay [5] and in assay [6] was > 100 µM throughout. Further, the TGI in [7], in assay [8], in assay [9] and in assay [10] was > 100 µM in each case.
As to `Clc1ccc(Cl)c(SCCCN2CCNCC2)c1`, the TGI stood at 51.4 µM in [1]; 41.4 µM in assay [2]; 26.5 µM in [3]; 41.7 µM in assay [4]; 47.9 µM in [5]; 52.1 µM in [6]. For the same compound, the TGI was 32.6 µM in assay [11], 44.4 µM in assay [8], 38.4 µM in assay [9] and 33.9 µM in assay [10].
With `O=C(Nc1ccc(-n2cc(-c3ccncc3)c(-c3ccc(O)c(Cl)c3)n2)cc1)Nc1cccc(Cl)c1Cl`, the GI50 is 2040 nM in assay [1]; 4.5 µM in [2]; 18.6 µM in assay [3]; 10.6 µM in assay [4]; 5.47 µM in [5]; 1160 nM in assay [11]. Besides, the GI50 in assay [8] was 9.11 µM; in assay [9] it was 4.54 µM; in assay [10], 18.6 µM. The TGI is 9.27 µM in assay [1]; > 32.5 µM in assay [2]; > 32.5 µM in assay [3]; > 32.5 µM in [4]; > 32.5 µM in [5]; 9.84 µM in assay [11]. Also, the TGI was > 32.5 µM in assay [8], 13 µM in assay [9] and > 32.5 µM in [10].
Take `CC(O)CC(O)(C(F)(F)F)C(F)(F)F` (centres undefined): the TGI in [1], in assay [2], in [3], in [4], in [5] and in assay [6] was > 10 µM throughout. The TGI in [7], in assay [8], in [9] and in assay [10] was > 10 µM each time.
For `O=C(CNCc1ccccc1)Oc1c(Cl)c(Cl)c(Cl)c(Cl)c1Cl`, the TGI in assay [1] is 95.6 µM; in assay [2], > 100 µM; in assay [3] it was 54.8 µM; in assay [4], > 100 µM; in [5] it was > 100 µM; in assay [6], > 100 µM. Also, the TGI in [8] was 69.1 µM; in [9] it was 85.9 µM; in assay [10], > 100 µM.
For the compound `COc1ccccc1N1CCN(CCCNC(=O)c2cc(Cl)c(N)c(Cl)c2)CC1`, the TGI in assay [1] is > 100 µM; in assay [2], > 100 µM; in assay [3], 47.8 µM; in [4], > 100 µM; in assay [5] it was > 100 µM; in assay [6], > 100 µM. The TGI in [11] is 31.4 µM; in assay [8] it was > 100 µM; in [10] it was > 100 µM.
Take `COc1ccc(-c2csc(NC(=O)CSc3nc(C)c(-c4ccccc4)n3Nc3ccccc3)n2)cc1`: the GI50 in [1] was > 100000 nM; in assay [2] it was 5.77 µM; in assay [3], > 100 µM; in assay [4], 47.8 µM; in assay [5], 8.24 µM; in assay [11] it was > 100000 nM. Also, the GI50 in assay [8] is 4.87 µM; in assay [9], 9.7 µM; in [10] it was 9.05 µM. Besides, the TGI in assay [1], in assay [2], in assay [3], in [4], in [5] and in assay [11] was > 100 µM each time. The TGI in assay [8], in assay [9] and in [10] was > 100 µM each time.
